One data set deals with LOX IMVI. The experiment in a line: cells. The class given is functional. Conditions: Homo sapiens, 21 h.
The next data set deals with Histone deacetylase. The experiment in a line: Inhibition of HDAC in HeLa cells. The format is cell-based, Homo sapiens.
For a further data set, the system named is NCI-H23. The experiment in a line: cells. The class given is functional. Conditions: Homo sapiens, NCI-H23, 21 h.
Another data set deals with HCT-15. Put plainly: cells. The class given is functional. Conditions: Homo sapiens, HCT-15, 21 h.
The next data set relates to ACHN. The experiment in a line: cells. The class given is functional. Conditions: Homo sapiens, 21 h.
For another data set, the system named is PC-3. Put plainly: cells. The format is functional. Conditions: Homo sapiens, PC-3, 21 h.
A short description of another data set: in vitro. Conditions: human, hepatocytes.
A further data set has as its system MDA-MB-231. Put plainly: cells. The format is functional. Conditions: Homo sapiens, MDA-MB-231, 21 h.

In ChEMBL document CHEMBL1149689, “Pomiferin, histone deacetylase inhibitor isolated from the fruits of Maclura pomifera” (Bioorg Med Chem Lett, 2007) one finds GI50 and IC50 data, which are given here for 2 molecules.

Description for ACHN: Growth inhibition of human ACHN cells after 21 hrs by MTT assay
Description for HCT-15: Growth inhibition of human HCT15 cells after 21 hrs by MTT assay
Description for LOX IMVI: Growth inhibition of human LOX-IMVI cells after 21 hrs by MTT assay
Description for MDA-MB-231: Growth inhibition of human MDA-MB-231 cells after 21 hrs by MTT assay
Description for NCI-H23: Growth inhibition of human NCI-H23 cells after 21 hrs by MTT assay
Description for PC-3: Growth inhibition of human PC3 cells after 21 hrs by MTT assay
Description for in vitro: Growth inhibition of human hepatocytes after 21 hrs by MTT assay

`CC(C)=CCc1c2c(c3occ(-c4ccc(O)cc4)c(=O)c3c1O)C=CC(C)(C)O2` [OSAJIN]: the GI50 in the data set with LOX IMVI stood at 11 µM; in the data set on NCI-H23, 12 µM; in the data set with HCT-15, 9.65 µM; in the data set with ACHN, 12.1 µM; in the data set on PC-3, 12.3 µM; in the data set on MDA-MB-231, 11.3 µM. Further, the IC50 against Histone deacetylase was 6.53 µM. This molecule also gave a GI50 at 21 h in “in vitro” greater than 500 µM.

As to `CC(C)=CCc1c2c(c3occ(-c4ccc(O)c(O)c4)c(=O)c3c1O)C=CC(C)(C)O2` [POMIFERIN], the 50% growth inhibitory concentration (GI50) in the data set on LOX IMVI amounted to 3.34 µM; in the data set on NCI-H23, 5.14 µM; with HCT-15, 1.32 µM; in the data set on ACHN, 3.18 µM; in the data set with PC-3 it was 3.95 µM; with MDA-MB-231, 2.92 µM. This molecule had an IC50 at Histone deacetylase of 1.05 µM. Further, growth in “in vitro” was halved (GI50 at 21 h) at 123 µM.

What is called GI50 is the concentration giving 50% growth inhibition. The term IC50 denotes the concentration needed to halve the response being measured. A lower IC50 goes with higher potency.
